Where “and” joins values, the source holds several entries; their conditions need not be identical. Equal values may be shown once. Where a name gives a salt, the structure may show the parent alone. Read-outs that look alike come from different tables or passages of the source. Blank lines part the entries; values can stand above or below the molecule they belong to.
Assays:
[1] = biological target: T1, DiHydroFolate Reductase (DHFR) (Rattus norvegicus, UniProt Q920D2); test: inhibition of binding of [3H]methotrexate to rat liver homogenate supernatant; conditions: for inhibition at 10 µM / inhibition at 99 µM / inhibition at 50 µM: read-out: [3H]methotrexate binding Inhibition (% @ assay conc'n); for inhibition at 99 µM: assay concentration 99 μM; for inhibition at 50 µM: assay concentration 50 μM
T1 construct: from tissue; host or cells: rat liver homogenate supernatant (47,500 x g)
T1 sequence (Q920D2 1-187): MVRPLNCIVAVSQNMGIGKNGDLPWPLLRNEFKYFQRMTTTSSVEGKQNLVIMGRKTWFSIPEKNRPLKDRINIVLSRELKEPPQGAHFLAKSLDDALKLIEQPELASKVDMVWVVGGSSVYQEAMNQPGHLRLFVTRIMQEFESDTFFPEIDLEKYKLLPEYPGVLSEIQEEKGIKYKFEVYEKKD

sodium channel [2] = test: veratrine-evoked uptake of [14C]guanidine into rat forebrain synaptosomes ([14C]guanidine flux); assay type: biochemical; conditions: for Hill (uptake of [14C]guanidine): slope
hERG potassium channel [3] = biological target: T2, hERG potassium channel (Homo sapiens, UniProt Q12809); test: inhibition of binding of [3H]astemizole to cell membranes expressing hERG
T2 sequence (Q12809 whole entry): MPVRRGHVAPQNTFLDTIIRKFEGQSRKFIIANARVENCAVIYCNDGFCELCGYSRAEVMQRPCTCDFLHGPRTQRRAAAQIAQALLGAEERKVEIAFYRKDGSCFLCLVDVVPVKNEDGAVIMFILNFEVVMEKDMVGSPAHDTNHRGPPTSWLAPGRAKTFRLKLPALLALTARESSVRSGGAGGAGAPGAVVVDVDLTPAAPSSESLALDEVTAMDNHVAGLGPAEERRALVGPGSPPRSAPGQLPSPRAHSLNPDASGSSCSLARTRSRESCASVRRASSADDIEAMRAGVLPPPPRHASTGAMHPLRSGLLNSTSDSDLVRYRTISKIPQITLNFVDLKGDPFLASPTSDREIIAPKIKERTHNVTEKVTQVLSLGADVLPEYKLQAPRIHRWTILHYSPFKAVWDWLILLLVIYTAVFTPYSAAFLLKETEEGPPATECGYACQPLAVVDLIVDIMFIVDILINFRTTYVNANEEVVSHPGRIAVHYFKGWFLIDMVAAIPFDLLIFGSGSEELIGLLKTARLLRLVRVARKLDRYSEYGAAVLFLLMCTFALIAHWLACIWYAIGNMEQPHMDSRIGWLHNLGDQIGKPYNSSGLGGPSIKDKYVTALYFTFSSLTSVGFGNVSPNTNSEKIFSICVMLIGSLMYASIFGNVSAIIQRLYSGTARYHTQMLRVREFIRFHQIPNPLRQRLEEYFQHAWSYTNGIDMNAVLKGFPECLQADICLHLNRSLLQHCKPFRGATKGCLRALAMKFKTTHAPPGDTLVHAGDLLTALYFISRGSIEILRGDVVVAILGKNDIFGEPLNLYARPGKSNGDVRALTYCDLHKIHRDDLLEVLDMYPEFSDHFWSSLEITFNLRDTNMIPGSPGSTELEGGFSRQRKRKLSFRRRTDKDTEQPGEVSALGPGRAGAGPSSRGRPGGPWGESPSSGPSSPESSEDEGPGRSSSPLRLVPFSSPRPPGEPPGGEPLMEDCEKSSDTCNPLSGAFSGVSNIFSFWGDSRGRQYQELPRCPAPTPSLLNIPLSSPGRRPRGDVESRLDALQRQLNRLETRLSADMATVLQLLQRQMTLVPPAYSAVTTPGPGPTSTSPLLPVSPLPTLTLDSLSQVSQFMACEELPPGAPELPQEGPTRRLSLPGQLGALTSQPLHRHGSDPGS

sodium channel [4] = assay type: binding, rat
hERG potassium channel [5] = biological target: T2, hERG potassium channel; test: in vitro
hERG potassium channel [6] = biological target: T2, hERG potassium channel
[7] = Table 3, rat forebrain synaptosomes, read-out: [14C]guanidine flux Mean (IC50: μM)
[8] = Table 8, read-out: IC50 (μM) (uptake of [14C]guanidine)
[9] = Table 4, tissue prep'n Homogenate, read-out: [3H]BTX-B binding Mean (IC50: μM)
[10] = Table 4, tissue prep'n Synaptosomes, read-out: [3H]BTX-B binding Mean (IC50: μM)

SMILES: COc1ccc(Cn2nc(-c3cccc(Cl)c3Cl)c(N)nc2=N)cc1 [Example 19, 5(3)-Amino-6-(2,3-dichlorophenyl)-2,3(2,5)-dihydro-3(5)-imino-2-(4-methoxy)phenylmethyl-1,2,4-triazine]
inhibition at 10 µM ([1]; assay concentration 10 μM): -2% | inhibition at 99 µM [1]: -3% | IC50 (sodium channel [2]; [7]): 5 µM | melting point: 212 to 215 °C

SMILES: Nc1nnc(-c2cc(Cl)cc(Cl)c2)c(N)n1 [Example 42, 3,5-Diamino-6-(3,5-dichlorophenyl)-1,2,4-triazine]
inhibition at 50 µM [1]: 99% | IC50 (sodium channel [2]; [7]): 155 µM | melting point: 223 to 225 °C

SMILES: CC(C)n1nc(-c2cccc(Cl)c2Cl)c(N)nc1=N [Example 4, 5(3)-Amino-6-(2,3-dichlorophenyl)-2,3(2,5)-dihydro-3(5)-imino-2-isopropyl-1,2,4-triazine]
IC50 (hERG potassium channel [3]): 18.6 µM and 19.4 µM | IC50 (sodium channel [4]; [9]): 0.6 µM | IC50 (sodium channel [4]; [10]): 1.5 µM | inhibition at 10 µM ([1]; assay concentration 10 μM): -1% | inhibition at 99 µM [1]: 0% | inhibition at 10 µM (hERG potassium channel [5]; hERG % inhibition @ 10 μM): 35% | selectivity ratio (hERG potassium channel [5]; hERG / [14C]guanidine flux selectivity): 6.6 | hERG / [14C]guanidine flux selectivity (hERG potassium channel [6]; human): 6.7 | IC50 (sodium channel [2]; [7]): 4 µM

SMILES: Nc1nnc(-c2cccc(F)c2Cl)c(N)n1 [Example 40, 2-chloro-3-fluorophenyl-1,2,4-triazine-3,5-diamine]
IC50 (sodium channel [4]; [10]): 283 µM | IC50 ([1]; rat liver supernatant): 589 µM | IC50 (sodium channel [2]; [7]): 834 µM | melting point: 244 to 246 °C

SMILES: Nc1nnc(-c2cc(Cl)ccc2Cl)c(N)n1 [Example 41, 3,5-Diamino-6-(2,5-dichlorophenyl)-1,2,4-triazine]
inhibition at 50 µM [1]: 93% | IC50 (sodium channel [2]; [7]): 525 µM | melting point: 228 to 230 °C

SMILES: N=c1nc(N)c(-c2cccc(Cl)c2Cl)nn1CCO [Example 5, 5(3)-Amino-6-(2,3-dichlorophenyl)-2,3(2,5)-dihydro-3(5)-imino-2-(2-hydroxyethyl)-1,2,4-triazine]
hERG / [3H]BTX-B selectivity (hERG potassium channel [3]; ratio of extrapolated hERG IC50 to [3H]BTX-B IC50 (synaptosomes)): 4.3 | IC50 (sodium channel [4]; [9]): 7.2 µM | IC50 (sodium channel [4]; [10]): 25.7 µM | IC50 (sodium channel [4]; Table 5, Synaptosome data, read-out: [3H]BTX-B IC50): 1.7 µM | [3H]methotrexate binding Inhibition (% @ assay conc'n) ([1]; assay concentration 10 μM): −1% | [3H]methotrexate binding Inhibition (% @ assay conc'n) ([1]; assay concentration 101 μM): 1% | IC50 (hERG potassium channel [6]): 7.2 µM | hERG / [14C]guanidine flux selectivity (hERG potassium channel [6]): 3.5 | IC50 (sodium channel [2]; [7]): 172 µM | IC50 (sodium channel [2]; Table 5, read-out: [14C]guanidine flux IC50): 2.1 µM

Continued, in another order:

melting point: 230 to 232 °C
SMILES: CCn1nc(-c2ccccc2)c(N)nc1=N (as salt: methanesulfonate) [Example 47, 5(3)-Amino-6-phenyl-2,3(2,5)-dihydro-3(5)-imino-2-ethyl-1,2,4-triazine methanesulfonate]

melting point: 234 to 236 °C
SMILES: Cn1nc(-c2cc(Cl)cc(Cl)c2)c(N)nc1=N (as salt: methanesulfonate) [Example 53, 5(3)-Amino-6-(3,5-dichlorophenyl)-2,3(2,5)-dihydro-3(5)-imino-2-methyl-1,2,4-triazine methanesulfonate]

pIC50 (uptake of [14C]guanidine) (sodium channel [2]; Table 8): 5.52 ± 0.03 | IC50 (sodium channel [2]; [8]): 3 µM | melting point: 269 to 271 °C
SMILES: CCn1nc(-c2cc(Cl)cc(Cl)c2Cl)c(N)nc1=N [Example 50]
Hill (uptake of [14C]guanidine) (sodium channel [2]; Table 8): 0.93

pIC50 (uptake of [14C]guanidine) (sodium channel [2]; Table 8): 2.76 ± 0.11 | IC50 (sodium channel [2]; [8]): 1740 µM | melting point: 148 to 150 °C
SMILES: Nc1nnc(-c2ccccc2OC(F)(F)F)c(N)n1 [Example 51, 3,5-Diamino-6-(2-trifluoromethoxyphenyl)-1,2,4-triazine]
Hill (uptake of [14C]guanidine) (sodium channel [2]; Table 8): 1.22

melting point: 212 to 214 °C
SMILES: N=c1nc(N)c(-c2cc(Cl)cc(Cl)c2Cl)nn1CCF (as salt: methanesulfonate) [Example 55, 5(3)-Amino-6-(2,3,5-trichlorophenyl)-2,3(2,5)-dihydro-3(5)-imino-2-(2-fluoroethyl)-1,2,4-triazine methanesulfonate]

melting point: 230 to 232 °C
SMILES: Cn1nc(-c2ccccc2)c(N)nc1=N (as salt: methanesulfonate) [Example 46, 5(3)-Amino-6-phenyl-2,3(2,5)-dihydro-3(5)-imino-2-methyl-1,2,4-triazine methanesulfonate]

Source: patent US8268823B2, “Medical use of triazine derivatives” (University of Greenwich, priority 2006, dated 2012)
